Data on eight compounds can be found in ChEMBL document CHEMBL3763136, “Synthesis and neuroprotective activity of dictyoquinazol A and analogues” (Bioorg Med Chem, 2016).

Series [1] concerns SH-SY5Y. Nature of the series: Neuroprotective activity against staurosporine-induced apoptosis in human SH-SY5Y cells assessed as increase in cell viability after 20 hrs by MTT assay. Type of series: functional, cell-based.
For series [2], the system named is SH-SY5Y. Nature of the series: Neuroprotective activity against H2O2-induced oxidative stress in human SH-SY5Y cells assessed as increase in cell viability after 20 hrs by MTT assay. Type of series: functional, cell-based. Background: Tetrazolium dyes change colour on reduction, which living cells bring about.
The test system of series [3] is SH-SY5Y. The series is described as follows: Neuroprotective activity against L-glutamate-induced excitotoxicity in human SH-SY5Y cells assessed as increase in cell viability after 20 hrs by MTT assay. Type of series: functional, cell-based.
Series [4] concerns SH-SY5Y. Nature of the series: Cytotoxicity against human SH-SY5Y cells assessed as cell viability at 0.3 to 3 uM after 24 hrs by MTT assay. Type of series: cell-based.
For series [5], the system named is SH-SY5Y. Nature of the series: Cytotoxicity against human SH-SY5Y cells assessed as cell viability up to 3 uM after 24 hrs by MTT assay. Type of series: cell-based.
Series [6] has as its system SH-SY5Y. The series is described as follows: Cytotoxicity against human SH-SY5Y cells assessed as cell viability above 10 uM after 24 hrs by MTT assay. Type of series: cell-based.
Series [7] concerns SH-SY5Y. The series is described as follows: Neuroprotective activity against L-glutamate-induced excitotoxicity in human SH-SY5Y cells assessed as increase in cell viability at 0.6 uM after 20 hrs by MTT assay. Type of series: functional.
Series [8] concerns SH-SY5Y. The series is described as follows: Neuroprotective activity against staurosporine-induced apoptosis in human SH-SY5Y cells assessed as increase in cell viability at 0.3 uM after 20 hrs by MTT assay. It is filed as functional.
For series [9], the system named is SH-SY5Y. Nature of the series: Neuroprotective activity against H2O2-induced oxidative stress in human SH-SY5Y cells assessed as increase in cell viability at 0.6 to 1.2 uM after 20 hrs by MTT assay. It is filed as functional.
In series [10] the test system is SH-SY5Y. The series is described as follows: Neuroprotective activity against L-glutamate-induced excitotoxicity in human SH-SY5Y cells assessed as increase in cell viability at 0.3 uM after 20 hrs by MTT assay. It is filed as functional.

Active and inactive are the calls of the source. No cut-off for these calls is given here.

On to `COc1ccc(-n2c(=S)[nH]c3ccc(OC)cc3c2=O)c(CO)c1`, for which, in [1], the result was inactive. For the same compound, the outcome in [2] and in [3] was Active. In addition, the Activity result in series [4] is “Non-toxic”.

As for `COc1ccc(-n2cnc3ccc(OC)cc3c2=O)cc1`, the result in series [1], in series [2] and in [3] was Active. Also, in series [4], the Activity entry is on record as “Non-toxic”.

As to `COc1ccc(-n2cnc3ccc(OC)cc3c2=O)c(COC=O)c1`, the Activity entry was “Non-toxic” in series [5] and “Toxic” in series [6].

`COc1ccc(-n2cnc3ccc(OC)cc3c2=O)c(CF)c1`: the Activity entry is reported as “Non-toxic” in series [5] and “Toxic” in series [6]. Besides, the outcome in series [1] and in series [3] was Active. Also, in [2], the result was inactive.

As to `COC(=O)c1cc(OC)ccc1-n1cnc2ccc(OC)cc2c1=O`, the outcome in series [1], in [2] and in [3] was Active. For the same compound, the Activity result in [4] is reported as “Non-toxic”.

As to `O=c1c2ccccc2ncn1-c1ccccc1CO`, the results for the Activity entry in [5], in series [7] and in [6] were “Non-toxic”, 35% and “Toxic”, respectively. Moreover, in series [1], the result was Active. In [2], the result was inactive.

Consider `COc1ccc(-n2c(=O)[nH]c3ccc(OC)cc3c2=O)c(CO)c1`, for which the outcome in series [1], in series [2] and in [3] was Active. Moreover, the Activity entry in series [4] is “Non-toxic”.

Turning to `COc1ccc(-n2cnc3ccc(OC)cc3c2=O)c(CO)c1` [DICTYOQUINAZOLE A], the Activity result in [5] is reported as “Non-toxic”; in [8], 41%; in [6] it was “Toxic”. The “%max” value is recorded as 22% in series [9] and 10% in series [10].
